Reference: patent US20240279205A1, “NOVEL BENZIMIDAZOLE DERIVATIVE” (Carna Biosciences, Inc., priority 2020, published 2024)
Counter-ions that a name gives are not always drawn.

What was measured:
[1] = tested on: STING activation (IFN-β production in THP-1 cells); test: Human IFN-β production inhibition test by cGAMP stimulation in THP-1 cells; assay type: cell-based; parameters: IFN-β bioinhibitory activity: scale not given here; settings: 2'3'-cGAMP transfection, 18 hours, IFN-β ELISA; for IC50: Homo sapiens, read-out: IFN-β bioinhibitory activity
Description: Human IFN-β production inhibition test by cGAMP stimulation
The inhibitory activity of test compounds against STING activation was evaluated by measuring the amount of IFN-β produced when human monocytic cell line THP-1 cells were stimulated with the endogenous ligand cGAMP.
After seeding THP-1 cells (ATCC) in a 96-well plate, PMA (Santa Cruz Biotechnology) adjusted to a concentration of 100 nM after addition was added, and incubated at 37° C. in a 5% CO2 incubator. It was cultured overnight (RPMI1640 medium containing 10% FBS, 50 U/mL penicillin/50 μg/mL streptomycin). A test compound solution adjusted to a final concentration of 0.001 to 1 μM was added to each well of this plate and cultured for 1 hour in a CO2 incubator (DMSO final concentration 0.1%). 0.12 μg/well of 2′3′-cGAMP (Invivogen, #tlrl-nacga23) was introduced into the cells by transfection using Lipofectamine2000 (Invitrogen) and cultured in a CO incubator for an additional 18 hours. After collecting the culture supernatant from each well, the amount of human IFN-β produced in the culture supernatant was measured by ELISA using R&D human IFN-β Duoset (R&D Systems).
Assuming that the human IFN-β production amount of the test compound-free and cGAMP-added group is 100%, and the human IFN-β production amount of the test compound-free and cGAMP-free group is 0%, the IC50 value was determined by regression analysis of the inhibitory rate determined from the amount of human IFN-β production at each compound concentration and the concentration of the test compound (logarithm).

[2] = biological target: T1, human STING (hSTING) (Homo sapiens, UniProt Q86WV6); test: Inhibition test of intracellular human STING (hSTING) pathway using SEAP reporter cells (HEK-Blue ISG), stimulation with Compound 3; assay type: cell-based; parameters: hSTING inhibitory activity: scale not given here; settings: Compound 3 10 nM stimulation, 21 hours
T1 construct: host or cells: HEK-Blue ISG cells (HEK293-derived SEAP reporter line)
T1 sequence (Q86WV6 whole entry H232R): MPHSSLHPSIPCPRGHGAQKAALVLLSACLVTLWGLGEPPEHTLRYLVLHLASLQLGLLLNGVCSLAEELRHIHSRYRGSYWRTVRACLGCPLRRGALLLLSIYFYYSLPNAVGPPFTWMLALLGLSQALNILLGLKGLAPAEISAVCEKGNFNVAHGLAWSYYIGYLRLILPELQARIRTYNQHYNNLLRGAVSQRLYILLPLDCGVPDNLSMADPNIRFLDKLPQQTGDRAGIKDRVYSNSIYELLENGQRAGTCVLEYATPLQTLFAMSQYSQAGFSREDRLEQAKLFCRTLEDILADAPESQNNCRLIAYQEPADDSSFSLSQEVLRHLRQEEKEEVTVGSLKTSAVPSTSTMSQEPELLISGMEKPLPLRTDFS
Method in brief: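 HEK-Blue ISG cells with IRF-inducible SEAP reporter, pretreated 1 h with compound (final 0.1 to 10 μM), then stimulated with Compound 3 (final 10 nM) for 21 h at 37° C. Supernatant SEAP measured colorimetrically; IC50 from log-concentration regression, normalized to stimulated (100%) and unstimulated (0%) controls.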

| SMILES | IC50 [1] [nM] | hSTING inhibitory activity [2] | IFN-β bioinhibitory activity [1] |
| --- | --- | --- | --- |
| COc1ccnc2c(Nc3nc4cc(Oc5ccccc5)ccc4[nH]3)c[nH]c12 [Embodiment 77, N-(7-Methoxy-1H-pyrrolo[3,2-b]pyridin-3-yl)-5-phenoxy-1H-benzo[d]imidazol-2-amine formate] | ≥ 1000 | * * | – |
| Fc1cc2nc(Nc3c[nH]c4ccc(Cl)nc34)[nH]c2cc1F [Embodiment 78, N-(5-Chloro-1H-pyrrolo[3,2-b]pyridin-3-yl)-5,6-difluoro-1H-benzo[d]imidazol-2-amine] | ≥ 1000 | * * | – |
| Brc1ccc2[nH]cc(Nc3nc4cc(I)ccc4[nH]3)c2n1 [Embodiment 80, N-(5-bromo-1H-pyrrolo[3,2-b]pyridin-3-yl)-5-iodo-1H-benzo [d]imidazol-2-amine] | – | * * * | * * * |
| Fc1ccc2[nH]c(Nc3c[nH]c4ccc(Cl)nc34)nc2c1F [Embodiment 82, N-(5-Chloro-1H-pyrrolo[3,2-b]pyridin-3-yl)-4,5-difluoro-1H-benzo[d]imidazol-2-amine] | – | * * | * * |
| Clc1cc(Cl)c2nc(Nc3c[nH]c4ccc(Cl)nc34)[nH]c2c1 [Embodiment 84, 4,6-dichloro-N-(5-chloro-1H-pyrrolo[3,2-b]pyridin-3-yl)-1H-benzo[d]imidazol-2-amine] | ≥ 1000 | * * | – |
| Fc1cc(F)c2nc(Nc3c[nH]c4ccc(Cl)nc34)[nH]c2c1 [Embodiment 86, N-(5-Chloro-1H-pyrrolo[3,2-b]pyridin-3-yl)-4,6-difluoro-1H-benzo[d]imidazol-2-amine formate] | ≥ 1000 | * * | – |
| Clc1ccc2[nH]cc(Nc3nc4cc(Br)ccc4[nH]3)c2n1 [Embodiment 95, 5-bromo-N-(5-chloro-1H-pyrrolo [3,2-b]pyridin-3-yl)-1H-benzo [d]imidazol-2-amine formate] | – | * * | * * * |
| C=C(C)c1ccc2[nH]c(Nc3c[nH]c4ccc(Cl)nc34)nc2c1 [Embodiment 100, N-(5-chloro-1H-pyrrolo[3,2-b]pyridin-3-yl)-5-(prop-1-en-2-yl)-1H-benzo[d]imidazole-2-amine] | – | * * * | * * * |
| C=Cc1ccc2[nH]cc(Nc3nc4cc(Oc5ccccc5)ccc4[nH]3)c2n1 [Embodiment 101, 5-phenoxy-N-(5-vinyl-1H-pyrrolo [3,2-b]pyridin-3-yl)-1H-benzo [d]imidazol-2-amine] | – | * * * | * * |
| CC(C)c1ccc2[nH]c(Nc3c[nH]c4ccc(Cl)nc34)nc2c1 [Embodiment 104, N-(5-Chloro-1H-pyrrolo[3,2-b]pyridin-3-yl)-5-isopropyl-1H-benzo[d]imidazol-2-amine] | – | * * | * * |
| Cn1c(Nc2c[nH]c3ncc(Cl)cc23)nc2ccc(Oc3ccccc3)cc21 [Embodiment 108, N-(5-Chloro-1H-pyrrolo[2,3-b]pyridin-3-yl)-1-methyl-6-phenoxy-1H-benzo[d]imidazol-2-amine] | ≥ 1000 | * * | – |
| C#Cc1ccc2[nH]cc(Nc3nc4cc(Oc5ccccc5)ccc4[nH]3)c2n1 [Embodiment 111, N-(5-ethynyl-1H-pyrrolo[3,2-b]pyridin-3-yl)-5-phenoxy-1H-benzo[d]imidazol-2-amine formate] | – | * * * | * * |
| CCO/C=C/c1ccc2[nH]c(Nc3c[nH]c4ccc(Cl)nc34)nc2c1 [Embodiment 114, (E)-N-(5-chloro-1H-pyrrolo[3,2-b]pyridin-3-yl)-5-(2-ethoxyvinyl)-1H-benzo[d]imidazol-2-amine] | ≥ 1000 | * * * | – |

More lines, main results first:

| IC50 [1] [nM] | hSTING inhibitory activity [2] | SMILES | IFN-β bioinhibitory activity [1] |
| --- | --- | --- | --- |
| 100 to 1000 | * * | Cc1cc2nc(Nc3c[nH]c4ccc(Br)nc34)[nH]c2cc1C [Embodiment 79, N-(5-bromo-1H-pyrrolo[3,2-b]pyridin-3-yl)-5,6-dimethyl-1H-benzo[d]imidazol-2-amine] | – |
| 100 to 1000 | * * | Cc1cc(C)c2nc(Nc3c[nH]c4ccc(Cl)nc34)[nH]c2c1 [Embodiment 87, N-(5-Chloro-1H-pyrrolo[3,2-b]pyridin-3-yl)-4,6-dimethyl-1H-benzo[d]imidazol-2-amine] | – |
| 100 to 1000 | * * * | Clc1cc2nc(Nc3c[nH]c4ccc(Br)nc34)[nH]c2cc1Cl [Embodiment 88, N-(5-bromo-1H-pyrrolo[3,2-b]pyridin-3-yl)-5,6-dichloro-1H-benzo[d]imidazol-2-amine] | – |
| 100 to 1000 | * * * | FC(F)(F)c1cccc2[nH]c(Nc3c[nH]c4ccc(Br)nc34)nc12 [Embodiment 89, N-(5-bromo-1H-pyrrolo[3,2-b]pyridin-3-yl)-4-(trifluoromethyl)-1H-benzo[d]imidazol-2-amine] | – |
| 100 to 1000 | * * * | CCCCn1c(Nc2c[nH]c3ccc(Br)nc23)nc2ccc(Oc3ccccc3)cc21 [Embodiment 91, N-(5-bromo-1H-pyrrolo[3,2-b]pyridin-3-yl)-1-butyl-6-phenoxy-1H-benzo[d]imidazol-2-amine] | – |
| 100 to 1000 | * * * | COCCn1c(Nc2c[nH]c3ccc(Br)nc23)nc2ccc(Oc3ccccc3)cc21 [Embodiment 93, N-(5-bromo-1H-pyrrolo[3,2-b]pyridin-3-yl)-1-(2-methoxyethyl)-6-phenoxy-1H-benzo[d]imidazol-2-amine] | – |
| 100 to 1000 | * * * | Clc1ccc2[nH]cc(Nc3nc4c(Cl)c(Cl)ccc4[nH]3)c2n1 [Embodiment 94, 4,5-dichloro-N-(5-chloro-1H-pyrrolo[3,2-b]pyridin-3-yl)-1H-benzo[d]imidazol-2-amine] | – |
| 100 to 1000 | * * | CCc1ccc2[nH]cc(Nc3nc4cc(Oc5ccccc5)ccc4[nH]3)c2n1 [Embodiment 103, N-(5-ethyl-1H-pyrrolo[3,2-b]pyridin-3-yl)-5-phenoxy-1H-benzo [d]imidazol-2-amine] | – |
| 100 to 1000 | * * | Cn1c(Nc2c[nH]c3ncc(Cl)cc23)nc2cc(C(F)(F)F)ccc21 [Embodiment 109, N-(5-Chloro-1H-pyrrolo[2,3-b]pyridin-3-yl)-1-methyl-5-(trifluoromethyl)-1H-benzo[d] imidazol-2-amine] | – |
| 100 to 1000 | * * | Clc1ccc2[nH]cc(Nc3nc4cc(C5CCOCC5)ccc4[nH]3)c2n1 [Embodiment 112, N-(5-chloro-1H-pyrrolo[3,2-b]pyridin-3-yl)-5-(tetrahydro-2H-pyran-4-yl)-1H-benzo[d]imidazole-2-amine] | – |
| 100 to 1000 | * * * | CC(C)n1c(Nc2c[nH]c3ccc(Cl)nc23)nc2cc(Oc3ccccc3)ccc21 [Embodiment 116, N-(5-Chloro-1H-pyrrolo[3,2-b]pyridin-3-yl)-1-isopropyl-5-phenoxy-1H-benzo[d]imidazol-2-amine] | – |
| 100 to 1000 | * * * | CC(C)n1c(Nc2c[nH]c3ccc(Cl)nc23)nc2ccc(Oc3ccccc3)cc21 [Embodiment 117, N-(5-Chloro-1H-pyrrolo[3,2-b]pyridin-3-yl)-1-isopropyl-6-phenoxy-1H-benzo[d]imidazol-2-amine] | – |
| 100 to 1000 | * * * | Clc1ccc2[nH]cc(Nc3nc4cc(Oc5ccccc5)ccc4n3C3CC3)c2n1 [Embodiment 118, N-(5-Chloro-1H-pyrrolo[3,2-b]pyridin-3-yl)-1-cyclopropyl-5-phenoxy-1H-benzo[d]imidazol-2-amine] | – |
| 100 to 1000 | * * * | Clc1ccc2[nH]cc(Nc3nc4ccc(Oc5ccccc5)cc4n3C3CC3)c2n1 [Embodiment 119, N-(5-Chloro-1H-pyrrolo[3,2-b]pyridin-3-yl)-1-cyclopropyl-6-phenoxy-1H-benzo[d]imidazol-2-amine] | – |
| 100 to 1000 | * * * | Clc1ccc2[nH]cc(Nc3nc4cc(OC5CCCCC5)ccc4[nH]3)c2n1 [Embodiment 120, N-(5-Chloro-1H-pyrrolo[3,2-b]pyridin-3-yl)-5-(cyclohexyloxy)-1H-benzo[d]imidazol-2-amine formate] | – |
| 100 to 1000 | * * * | Cc1ccc2[nH]c(Nc3c[nH]c4ccc(Cl)nc34)nc2c1 [Embodiment 123, N-(5-chloro-1H-pyrrolo[3,2-b]pyridin-3-yl)-5-methyl-1H-benzo[d] imidazol-2-amine] | – |
